Results taken from the NIST ThermoML archive (doi:10.1016/j.fluid.2014.09.014).

Assay: xn = mol fraction of the nth substance listed
Conditions: 101 kPa, Liquid, mechanical oscillator

CC(C)OC(C)C [diisopropyl ether] + CC(C)O
mass density [kg/m3]
Conditions	293.15 K	298.15 K	303.15 K	308.15 K	313.15 K	318.15 K
x1 = 0.0277	784.54	780.15	775.28	770.51	766.2	–
x1 = 0.0507	783.14	778.52	773.7	769.05	764.54	759.23
x1 = 0.051	783.12	–	773.67	769.05	764.52	759.21
x1 = 0.0717	781.73	776.95	772.14	767.56	762.92	757.56
x1 = 0.1528	775.51	770.53	765.48	760.84	756.03	750.75
x1 = 0.1938	772.05	–	761.88	757.06	–	–
x1 = 0.2029	771.28	766.41	761.07	756.2	751.49	746.41
x1 = 0.245	767.66	762.95	757.34	752.2	747.64	742.79
x1 = 0.297	–	758.78	752.77	747.3	742.94	738.39
x1 = 0.3068	762.42	758.01	751.96	746.39	742.11	737.61
x1 = 0.398	755.24	751.23	744.62	738.38	734.56	730.51
x1 = 0.4609	750.87	747.02	740.13	733.51	729.95	726.09
x1 = 0.5434	745.99	742.15	735.09	728.12	724.76	720.95
x1 = 0.6032	743.03	739.05	732	724.92	721.58	717.67
x1 = 0.6371	741.54	737.43	730.43	723.33	719.96	715.94
x1 = 0.701	738.99	–	–	–	–	–
x1 = 0.754	737.02	732.28	725.68	718.81	715.06	710.5
x1 = 0.791	–	730.68	724.25	717.51	713.58	708.82
x1 = 0.8296	734.1	728.95	722.69	716.11	711.97	707.02
x1 = 0.8903	731.31	725.97	719.93	713.61	709.12	703.97
x1 = 0.9113	730.18	724.83	718.84	712.6	707.99	702.81
x1 = 0.9547	727.49	722.2	716.27	710.18	705.35	700.18
x1 = 0.973	726.17	720.98	715.03	708.99	704.08	698.96
x1 = 0.9771	725.86	720.69	714.73	708.7	703.78	698.67
x1 = 1	723.86	718.3	712.68	707.06	701.5	696.98

CC(C)OC(C)C [diisopropyl ether] + CO
mass density [kg/m3]
Conditions	293.15 K	298.15 K	303.15 K	308.15 K	313.15 K	318.15 K
x2 = 0	723.86	718.3	712.68	707.06	701.5	696.98
x2 = 0.0423	725.34	720.12	–	708.61	702.92	698.39
x2 = 0.0424	725.34	720.13	714.26	708.63	702.94	698.41
x2 = 0.082	727.36	722.06	716.26	710.51	704.95	699.97
x2 = 0.0822	727.37	722.07	716.27	710.52	704.96	699.98
x2 = 0.1171	729.04	723.73	717.96	712.26	706.79	701.61
x2 = 0.1271	729.5	724.19	718.43	712.74	707.29	702.07
x2 = 0.1827	731.99	726.76	720.98	715.35	709.93	704.6
x2 = 0.2162	733.44	728.28	722.47	716.86	711.42	706.1
x2 = 0.251	734.94	729.84	723.99	718.4	712.93	707.66
x2 = 0.3298	738.41	733.39	727.46	721.88	716.3	711.24
x2 = 0.3577	739.69	–	728.71	723.14	717.52	712.55
x2 = 0.445	–	–	733.04	–	–	–
x2 = 0.4525	744.38	739.19	733.18	727.64	721.96	717.21
x2 = 0.522	748.28	–	736.82	731.34	725.66	720.99
x2 = 0.5543	750.25	744.6	738.65	733.22	727.56	722.88
x2 = 0.609	753.85	747.88	742.01	736.67	731.07	726.33
x2 = 0.6529	756.99	750.75	744.97	739.73	734.2	729.37
x2 = 0.7504	764.78	758.11	752.58	747.61	742.24	737.12
x2 = 0.804	769.56	762.86	757.48	752.69	–	–
x2 = 0.807	769.84	763.14	757.78	–	747.67	742.4
x2 = 0.8727	776.23	769.84	764.66	760.14	754.77	749.37
x2 = 0.9253	781.7	775.96	770.89	766.58	761.06	755.7
x2 = 0.9527	784.68	779.45	774.42	770.23	764.57	759.3
x2 = 0.9773	787.42	782.77	777.76	773.67	767.86	762.7
x2 = 0.989	–	784.41	779.41	775.36	769.46	764.38
x2 = 0.9964	–	–	–	776.46	770.49	–
